Results taken from patent US10273272B2, “Antimicrobial peptides” (Amprologix Limited, priority 2014, dated 2019).
≈ marks a conversion by molar mass, not a printed value. Where two headings read alike, the source gives them in different places. Residues, ends and D or L forms follow the SMILES beside them. No end group written: not given here.

What was measured:
E. coli = type: cell-based; details: for Average MIC: average of triplicate experiments, Table 5
Procedure: (§1) A series of derivatives of the NI0138-51 (SEQ ID NO:12) truncation were carried out with a view to maintaining stability of the helix and/or increasing net positive charge of the peptides (Table 3). Minimum inhibitory concentrations (MICs) were determined for each derivative against a range of Gram positive and Gram negative organisms by a modified 2-fold microtitre broth dilution method (Wu and Hancock, J Biol Chem 1999; 274: 29-35) (Table 2). […] This could not have been predicted.

N. lactamica = type: cell-based
Procedure: as §1

P. aeruginosa = type: cell-based
Procedure: as §1

S aureus 1195 = type: cell-based
Procedure: as §1

haemolysis = experiment: Haemolysis assay (in vitro toxicity testing); type: cell-based; details: summary of Table 6
Procedure: In addition, in vitro toxicity testing (haemolysis assays) indicates a lack of toxicity at levels well above MIC for some peptides, indicating potential for a wide therapeutic window (Table 6). […] Since increased net charge is known to be associated with higher levels of haemolysis, (Dhople and Nagaraj, Peptides 2005: 26: 217-225), this was not wholly unexpected.
Experiments were conducted to assess the percentage haemolysis against peptide concentration for peptides SEQ ID NOs: 4, 5, 6 and 7 against full length epidermicin (SEQ ID NO:10) and SEQ ID NO:12.

S. Hominis = type: cell-based
Procedure: (§2) Experiments were conducted in which the full-length epidermicin peptide (51 amino acids, SEQ ID NO:10) was truncated to yield the derivatives shown in FIG. 1 (SEQ ID NOs:11 to 19). NI011-37 (SEQ ID NO:11) Is the region most similar to other peptides in the public domain, NI0138-51 (SEQ ID NO:12) is the region that is most unique with respect to other peptides in the public domain. All other truncations have been carried out by removing residues from the amino-terminal end of the peptide to each lysine residue (K). Lysine is important in antimicrobial peptides as it contributes to the net positive charge, which is thought to have a key role in the mode of action of ‘cationic’ peptides, like NI01 (SEQ ID NO:10).

S. aureus 1195 = type: cell-based
Procedure: as §2

S. saprophyticus = type: cell-based
Procedure: as §2

[1] = system: Vanc. resistant Enterococcus; type: cell-based
Procedure: as §2

MRSA = type: cell-based, Staphylococcus aureus
Procedure: as §2

Gram-negative bacteria = type: cell-based; details: previous data, not presented
Procedure: It was a most surprising finding that the truncated and modified novel peptides of the present invention based on the epidermicin peptide were effective against Gram negative bacteria.
as §1

[2] = system: Gram positive and negative bacteria; experiment: Antimicrobial activity against drug-resistant pathogens, summary in words; type: cell-based; details: summary of Table 2
Procedure: as §1

Compound	MIC (S. Hominis) [µg/mL]	MIC (S. aureus 1195) [µg/mL]	MIC (S. saprophyticus) [µg/mL]	MIC [1] [µg/mL]	other results
CC[C@H](C)[C@H](NC(=O)[C@H](CCC(N)=O)NC(=O)[C@H](CCCCN)NC(=O)[C@H](Cc1ccc(O)cc1)NC(=O)[C@@H](NC(=O)[C@H](Cc1c[nH]c2ccccc12)NC(=O)[C@H](CCCCN)NC(=O)[C@H](Cc1ccccc1)NC(=O)[C@H](CO)NC=O)[C@@H](C)CC)C(=O)N[C@@H](CCCCN)C(=O)N[C@@H](CCCCN)C(=O)N[C@@H](CC(C)C)C(=O)N[C@@H](Cc1c[nH]c2ccccc12)C(=O)N[C@@H](C)C(=O)O [SEQ ID NO:4, formyl-SFKWIYKQIKKLWA] (HELM PEPTIDE1{[O=C[*:2]].S.F.K.W.I.Y.K.Q.I.K.K.L.W.A}$$$$V2.0; C-terminus assumed)	–	–	–	–	MIC (E. coli; E. coli 50, Table 2): 2.3 µg/mL (≈ 1.23 µM); MIC (E. coli; E. coli 178, Table 2): 1.3 µg/mL (≈ 0.696 µM); MIC (E. coli; E. coli DH5α, Table 2): 1.5 µg/mL (≈ 0.803 µM); MIC (E. coli; E.coli 177, Table 2): 2 µg/mL (≈ 1.07 µM); MIC (N. lactamica): 6.7 µg/mL (≈ 3.59 µM); MIC (P. aeruginosa): 6.7 µg/mL (≈ 3.59 µM); MIC (S aureus 1195): 1.7 µg/mL (≈ 0.91 µM); haemolytic activity / toxicity, in words (haemolysis): higher levels of haemolytic activity
KGQKYVSLAWKHKGTILKWINAGQSFEWIYKQIKKLWA [SEQ ID NO:14]	6	8	8	4	–
KGTILKWINAGQSFEWIYKQIKKLWA [SEQ ID NO:17]	16	8	4	–	–
KHKGTILKWINAGQSFEWIYKQIKKLWA [SEQ ID NO:16]	4	8	8	–	MIC (MRSA): 12 µg/mL
KLIQFLATKGQKYVSLAWKHKGTILKWINAGQSFEWIYKQIKK [SEQ ID NO:13]	16	8	8	–	–
KWINAGQSFEWIYKQIKKLWA [SEQ ID NO:18]	6	8	4	4	–
KYVSLAWKHKGTILKWINAGQSFEWIYKQIKKLWA [SEQ ID NO:15]	6	8	4	–	–
MAAFMKLIQFLATKGQKYVSLAWKHKGTILKWINAGQ [SEQ ID NO:11]	12	8	8	8	–
MAAFMKLIQFLATKGQKYVSLAWKHKGTILKWINAGQSFEWIYKQIKKLWA [SEQ ID NO:10, reference compound]	0.42	0.16	0.02	–	MIC (MRSA): 0.03 µg/mL; MIC values against Gram-negative bacteria (Gram-negative bacteria): > 64 µg/mL
SFEWIKYQIKKLWA [SEQ ID NO:2, SFEWIKYQIKKLWA]	–	–	–	–	Average MIC (E. coli; E. coli 49): 24 µg/mL; MIC (E. coli; E. coli 50, Table 2): 27 µg/mL; Average MIC (E. coli; E. coli 50): 27 µg/mL; Average MIC (E. coli; E. coli 177): 19 µg/mL; MIC (E. coli; E. coli 178, Table 2): 27 µg/mL; Average MIC (E. coli; E. coli 178): 27 µg/mL; Average MIC (E. coli; E. coli 187): 17 µg/mL; Average MIC (E. coli; E. coli DH5a): 17 µg/mL; MIC (E. coli; E. coli DH5α, Table 2): 17 µg/mL; MIC (E. coli; E.coli 177, Table 2): 19 µg/mL; MIC (N. lactamica): 37.3 µg/mL; MIC (P. aeruginosa): >64 µg/mL; Average MIC (S aureus 1195): 9 µg/mL; MIC (S aureus 1195): 9 µg/mL; antimicrobial activity against Gram positive and negative bacteria, in words [2]: significantly reduced activity
